Assay results reported in US20070060551A1, “Methods of using isothiazole derivatives to treat cancer or inflammation” (QLT, Inc., priority 2002, published 2007).
One block for each compound: values may come before it.

How the values were obtained:
PTPN12 = biological target: T1, PTPN12 (Homo sapiens, UniProt Q05209); assay: PTPN12 in vitro phosphatase assay (malachite green phosphate release); assay type: biochemical; conditions: for % Inhibition of PTPN12: at 20 μm concentration
T1 construct: Expression of human truncated PTPN12 (PTP-PEST-N) as a fusion protein; made in house; host or cells: E. coli strain ER2566 (IMPACT vector pTWIN-II)
T1 sequence (Q05209 28-293 limits assumed): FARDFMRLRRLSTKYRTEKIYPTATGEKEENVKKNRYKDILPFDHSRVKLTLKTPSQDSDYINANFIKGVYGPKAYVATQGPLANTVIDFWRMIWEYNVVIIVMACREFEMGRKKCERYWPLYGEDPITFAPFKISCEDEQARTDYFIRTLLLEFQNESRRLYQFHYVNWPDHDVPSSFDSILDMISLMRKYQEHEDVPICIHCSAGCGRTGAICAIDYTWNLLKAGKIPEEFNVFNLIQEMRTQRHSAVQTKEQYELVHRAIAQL
Description: Expression of human truncated PTPN12 (PTP-PEST-N) as a fusion protein required that the cDNA be ligated into the polyclonal site situated in frame and upstream of the intein gene of the IMPACT™ expression vector pTWIN-II. The truncated version was used as it was far easier to handle and gave parallel results to the full length protein in comparison testing. For the purpose of simplicity, PTP-PEST-N will be used interchangeably with PTPN12 in these Examples.
Biochemical analysis is performed on recombinant human PTPN12 fusion protein. […] This activity is considered to be in the high range as compared to other recombinant protein tyrosine phosphatases. PTPN12 preparations were subsequently used extensively in in vitro assays for the initial discovery of compounds having the ability to inhibit PTPN12 activity.
Compounds were tested in the following assay for their ability to inhibit the activity of the desired phosphatase.
The enzyme (phosphatase) activity was determined in a reaction that measured phosphate relase from tyrosine phospho-specific peptides using a method first described by Harder et al., Biochem. J. (1994), Vol. 298, pp. 395-401. This is a non-radioactive method for measuring free phosphate by the malachite green method first described by Van Veldhoven and Mannaerts, Anal Biochem. (1987), Vol.161, pp. 45-48. 10× assay buffer (250 mM Tris:100 mM, β-Mercaptoethanol, 50 mM EDTA; pH 7.2) was diluted to 5× concentration with distilled H2O (dH2O). Then 71.4 μM of substrate working stock solution was prepared in dH2O.
In a Falcon 96 well plate the sample compound was diluted in 1% DMSO (One mL DMSO (Sigma, Cat. # D-8779) dissolved in 99 mL dH2O and stored at room temperature) such that the concentration of the sample compound working stock solution is ten times the final desired concentration of the compound in the assay.
The negative control consisted of 5 μl 1% DMSO and 35 μL substrate working stock solution and 10 μL diluted enzyme, per well), and was placed in the first column of wells on the plate. The last column of wells on the plate was reserved for an enzyme blank, which consisted of 5 μL 1% DMSO, 35 μL substrate working stock solution, and 10 μL 5× assay buffer, per well. Test samples were placed in columns 2-11 and consisted of 5 μL sample in 1% DMSO, 35 μL substrate working stock solution, and 10 μL of diluted enzyme, per well, at the desired concentration. Using the repeater function of a Biohit™ multichannel pipettor, 5 μL of 100 μM sample from the Falcon plate columns was added to corresponding Costar™ assay plate columns.
Using a multichannel pipettor, 35 μL of 71.4 μM ppC-SRC 60 substrate was added to all assay wells, then 10 μL of appropriately diluted enzyme was added to the wells on a column by column basis, pausing 5 seconds between columns. Timing started at the first addition.
The assay plate was incubated at room temperature (21° C.) for 15 minutes. The reaction was “stopped” by adding 100 μL colour reagent on a column by column basis, pausing 5 seconds between columns. Colour was allowed to develop for at least 15 minutes, but no longer than two hours, at room temperature. The plate was “read” on Bio-tek Instruments EL312e™ microplate Bio-Kinetics™ reader at 590 nm and the data collected as per instrument manual.
The blank and negative controls were read, and blanks were subtracted from the average of negative control values and sample values, and the % inhibition was expressed by the following formula: % Inhibition=100−[corrected sample reading/corrected Negative Control reading*100].

various cell lines = assay: Cytotoxicity assay (calcein AM cell viability); assay type: cell-based; conditions: approximately 24 hours incubation
Description: This procedure is used to assess the effects compounds have on various cell lines with respect to cell viability. Cell viability is quantified using calcein AM and measuring its conversion to a fluorescent product (calcein) with a fluorimeter.
The principle of this assay is based on the presence of ubiquitous intracellular esterase activity found in live cells. By enzymatic reaction of esterase, non-fluorescent cell-permeant calcein AM is converted to the intensely fluorescent calcein. The polyanionic dye calcein is retained within live cells, producing a green fluorescence in live cells. […]
Cells were collected from tissue culture flasks and trypsinized, centrifuged, resuspended and counted. […]
The calcein AM solution is prepared by added 50 μg of calcein AM crystal (m.w. =994.87 g/mol, Molecular Probes, Eugene, Oreg.) and Anhydrous DMSO (Sigma Aldrich) to make 1 mM stock and diluting stock to 2× the final desired concentration in 1× DPBS just before the assay. […] Fluorescence data was read and recorded (Fluoroskan Ascent® FL fluorimeter (excitation˜485nm, emission˜527nm)).
The values for replicates (usually six) are averaged and % inhibition is calculated as follows: % inhibition=100−[(AVG treatment−AVG positive control)/(AVG negative control−AVG positive control)*100]

caspase-3 = biological target: T2, caspase-3 (Homo sapiens, UniProt P42574); assay: Caspase-3 selectivity assay (Calbiochem kit, colorimetric); assay type: biochemical
T2 construct: purchased Calbiochem
T2 sequence (P42574 29-175 limits assumed): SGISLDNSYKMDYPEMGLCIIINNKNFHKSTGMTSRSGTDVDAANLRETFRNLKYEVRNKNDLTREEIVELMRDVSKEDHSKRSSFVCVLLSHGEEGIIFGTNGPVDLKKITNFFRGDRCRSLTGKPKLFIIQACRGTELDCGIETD
T2 sequence (P42574 176-277 limits assumed): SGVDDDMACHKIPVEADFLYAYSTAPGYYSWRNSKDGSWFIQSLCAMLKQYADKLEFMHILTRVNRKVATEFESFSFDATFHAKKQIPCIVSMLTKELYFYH
Description: This is a selectivity assay, which provides information about the specificity of the compounds. A cysteine residue located within the active pocket of the catalytic domain that is conserved between the […] like caspase-3 and the protein tyrosine phosphatases like PTPN12 has a thiol group within this cysteine amino acid that may interact with specific R-groups with inhibiting compounds with in vitro enzyme inhibiting activity. Also, caspase inhibition can prevent apoptosis from occurring in some cases via the caspase cascade. As the potential for cross-inhibitory activity and nonselectivity exists, the caspase-3 assay is performed on PTN12 inhibitors.
The Calbiochem caspase-3 assay kit was utilized according to package insert instructions. The assay is useful for screening for caspase-3 inhibitors measuring the protease activity of caspase-3 and other caspase-3-like activities. Cleavage is monitored calorimetrically by measuring the increase in absorbance at 405 nm. Assays were performed in a 96-well microtiter plate format.

- % Inhibition of PTPN12 (PTPN12): 60%
Structure (SMILES): CCS(=O)(=O)CCSc1nsc(SCCS(=O)(=O)CC)c1C#N [3,5-Bis-(2-ethanesulfonyl-ethylsulfanyl)-isothiazole-4-carbonitrile]

- % Inhibition of PTPN12 (PTPN12): 51%
Structure (SMILES): CSc1nsc(SC)c1C(=O)N1CCCCC1 [(3,5-Bis-methylsulfanyl-isothiazol-4-yl)-piperidin-1-yl-methanone]

More lines, now with the values behind:

Structure (SMILES): CS(=O)(=O)c1nsc(S(C)(=O)=O)c1C(=O)NC(=O)Nc1ccccc1Cl [1-(3,5-Bis-methanesulfonyl-isothiazole-4-carbonyl)-3-(2-chloro-phenyl)-urea]
- % Inhibition of PTPN12 (PTPN12): 63%

Structure (SMILES): CSc1nsc(SCc2ccccc2)c1C(N)=O [5-Benzylsulfanyl-3-methylsulfanyl-isothiazole-4-carboxylic acid amide]
- cytotoxicity (cell viability, calcein AM) (various cell lines): no cytotoxicity
- IC50 (PTPN12; PTPN12, unit inferred): 1500 nM
- inhibition at 20 µM (PTPN12; at 20 μM (Table 2)): 94%
- % Inhibition of Caspase 3 (caspase-3; at 10 μm): 4 at 10 μm %
- % Inhibition of Caspase 3 (caspase-3; at 100 μm): 14 at 100 μm %

Structure (SMILES): N#Cc1c(SCC(=O)Nc2ccc(S(N)(=O)=O)cc2)nsc1SCC(=O)Nc1ccc(S(N)(=O)=O)cc1 [2-{4-Cyano-3-[(4-sulfamoyl-phenylcarbamoyl)-methylsulfanyl]-isothiazol-5-ylsulfanyl}-N-(4-sulfamoyl-phenyl)-acetamide]
- % Inhibition of PTPN12 (PTPN12): 73%
